Values of other authors, collected in US20250161199A1, “FORMULATION FOR TREATING AND PREVENTING HAIR LOSS” (DR. BARR - MEDICINE AS ART LTD, priority 2023, published 2025).

Test system: androgenic alopecia
Conditions: in vivo

Row | Compound | time until effect becomes apparent
1 | CC(C)(C)NC(=O)[C@H]1CC[C@H]2[C@@H]3CC[C@H]4NC(=O)C=C[C@]4(C)[C@H]3CC[C@]12C [finasteride] | only after several months of treatment
2 | C[C@]12C=CC(=O)N[C@@H]1CC[C@@H]1[C@@H]2CC[C@]2(C)[C@@H](C(=O)Nc3cc(C(F)(F)F)ccc3C(F)(F)F)CC[C@@H]12 [dutasteride] | only after several months of treatment
